The results in this text go back to patent US9156827B2, “Anticancer agent” (THE UNIVERSITY OF TOKYO, priority 2010, dated 2015).

The subject of assay [1] is human acute myeloid leukemia MV4.11 cells. The assay can be described thus: Cell proliferation-suppressing activity, fluorescence method (Alamar Blue assay). Type of assay: cell-based. As to conditions: 48 h, compound 1 μM, Alamar Blue assay two days after inoculation, Table 5. How it is done: Measurement of Cell Proliferation-Suppressing Activity (Fluorescence Method)
Each compound was added to a 96-well microtiter plate at a final concentration of 1 μM, then human acute myeloid leukemia MV4.11 cells (10^4 cells) were inoculated, and the Alamar Blue assay was performed two days after the inoculation (measurement of fluorescence: Ex. 535 nm, Em. 590 nm) to measure cell proliferation-suppressing activity.
A general note: Resazurin is reduced to fluorescent resorufin, in cell work by metabolically active cells.

Assay [2] has as its target pim-1 kinase (Homo sapiens, UniProt P11309). The assay can be described thus: Measurement of pim-1 kinase inhibitory activity (fluorescent substrate peptide, capillary electrophoresis). It counts as biochemical. As to conditions: 0.1 μM of each compound, 30 μM ATP, 1.5 μM substrate peptide, room temperature 2 hours. The procedure:
Measurement of Pim-1 Kinase Inhibitory Activity
The result of the reaction was determined by quantifying the substrate and the phosphorylated reaction product separated by capillary electrophoresis based on difference in charges of the substances (EZ Reader II, Caliper Life Sciences, was used).

Assay [3] has as its system Human acute myeloid leukemia MV4-11 cells. The assay can be described thus: Cell proliferation-suppressing activity, chromogenic method (MTT assay). It counts as cell-based. The following applies: 72 h, compound 1 μM, MTT assay three days after addition. How it is done:
Measurement of Cell Proliferation-Suppressing Activity (Chromogenic Method)
Human acute myeloid leukemia MV4-11 cells (10^4 cells) were inoculated on a 96-well microtiter plate, each compound was added at a final concentration of 1 μM 24 hours afterward, and MTT assay was performed three days after the addition of the compound to measure the cell proliferation-suppressing activity.
(In general: Formazan colour is commonly taken as a measure of viable cells.)

Structures can show the parent of a compound that is named as a salt.

Chain of pim-1 kinase (P11309 whole entry): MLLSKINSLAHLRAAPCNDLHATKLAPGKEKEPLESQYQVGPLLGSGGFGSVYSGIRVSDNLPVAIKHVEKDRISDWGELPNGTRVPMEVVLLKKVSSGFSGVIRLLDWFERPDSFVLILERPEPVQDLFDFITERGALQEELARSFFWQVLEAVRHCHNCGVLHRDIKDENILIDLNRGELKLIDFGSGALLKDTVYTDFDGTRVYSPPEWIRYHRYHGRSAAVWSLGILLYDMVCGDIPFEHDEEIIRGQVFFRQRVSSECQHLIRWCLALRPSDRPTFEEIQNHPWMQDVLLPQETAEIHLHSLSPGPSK

`O=C1/C(=C/c2c[nH]c3ccccc23)Oc2c1cc(Cl)c(O)c2CN1CCNCC1` [Compound A12, (Z)-2-[(1H-Indol-3-yl)methylene]-5-chloro-6-hydroxy-7-(piperazin-1-ylmethyl)benzofuran-3(2H)-one dihydrochloride] had an inhibition at 1 µM in assay [1] of 87%. Also, testing at 0.1 µM in assay [2] (Table 1) gave an inhibition of 81%.
Consider `Cc1ccc2[nH]cc(/C=C3\Oc4c(ccc(O)c4CN4CCNCC4)C3=O)c2c1` [Compound A18, (Z)-6-Hydroxy-2-[(5-methyl-1H-indol-3-yl)methylene]-7-(piperazin-1-ylmethyl)benzofuran-3(2H)-one dihydrochloride], for which 1 µM produced 71% inhibition in assay [1]. 0.1 µM produced 95% inhibition in assay [2] (Table 1).
Take `O=C1/C(=C/c2c[nH]c3ccc(Br)cc23)Oc2c1ccc(O)c2CN1CCNCC1` [Compound A22, (Z)-2-[(5-Bromo-1H-indol-3-yl)methylene]-6-hydroxy-7-(piperazin-1-ylmethyl)benzofuran-3(2H)-one dihydrochloride]: in assay [2] (Table 1), the inhibition at 0.1 µM was found to be 94%. Also, in assay [3] (Table 3), the inhibition at 1 µM turned out to be 70%.
The compound `Nc1ccc2c(/C=C3\Oc4c(ccc(O)c4CN4CCNCC4)C3=O)c[nH]c2c1` [Compound A25, (Z)-2-[(6-Amino-1H-indol-3-yl)methylene]-6-hydroxy-7-(piperazin-1-ylmethyl)benzofuran-3(2H)-one trihydrochloride] registered an inhibition at 1 µM in assay [1] of 20%. The compound also showed an inhibition at 0.1 µM in assay [2] (Table 1) of 83%.
The matching figures for `Cc1ccc(S(=O)(=O)n2cc(/C=C3\Oc4c(ccc(O)c4CN4CCNCC4)C3=O)c3ccccc32)cc1` [Compound A33, (Z)-6-Hydroxy-7-(piperazin-1-ylmethyl)-2-[(1-tosyl-1H-indol-3-yl)methylene]benzofuran-3(2H)-one dihydrochloride]: 32% and 94%.
The matching figures for `O=C1/C(=C/c2cn(S(=O)(=O)c3ccc(C(F)(F)F)cc3)c3ccccc23)Oc2c1ccc(O)c2CN1CCNCC1` [Compound A34, (Z)-6-Hydroxy-7-(piperazin-1-ylmethyl)-2-({1-[4-(trifluoromethyl)phenylsulfonyl]-1H-indol-3-yl}methylene)benzofuran-3(2H)-one dihydrochloride]: 58% and 98%.
The matching figures for `O=C1/C(=C/c2cn(S(=O)(=O)c3ccc(Cl)cc3)c3ccccc23)Oc2c1ccc(O)c2CN1CCNCC1` [Compound A35, (Z)-{[1-(4-Chlorophenylsulfonyl)-1H-indol-3-yl]methylene}-6-hydroxy-7-(piperazin-1-ylmethyl)benzofuran-3(2H)-one dihydrochloride]: 48% and 96%.
`C[C@H]1CNCCN1Cc1c(O)ccc2c1O/C(=C\c1n[nH]c3ccccc13)C2=O` [Compound B3, (Z)-2-[(1H-Indazol-3-yl)methylene]-6-hydroxy-7-{[2-(S)-methylpiperazin-1-yl]methyl}benzofuran-3(2H)-one] came in with an inhibition at 0.1 µM in assay [2] (Table 2) of 79%. In addition, in assay [3] (Table 4), the inhibition at 1 µM stood at 79%.
Regarding `CC(c1c(O)ccc2c1O/C(=C\c1n[nH]c3ccccc13)C2=O)N1CCNCC1` (stereo not shown) [Compound B7, (Z)-2-[(1H-Indazol-3-yl)methylene]-6-hydroxy-7-[1-(piperazin-1-yl)ethyl]benzofuran-3(2H)-one], the inhibition at 0.1 µM in assay [2] (Table 2) is 86%. At 1 µM the inhibition in assay [3] (Table 4) was 88%.
On to `COc1ccc2c(c1CN1CCNCC1)O/C(=C\c1n[nH]c3ccccc13)C2=O` [Compound B17, (Z)-2-[(1H-Indazol-3-yl)methylene]-6-methoxy-7-(piperazin-1-ylmethyl)benzofuran-3(2H)-one], for which the inhibition at 0.1 µM in assay [2] (Table 2) is 100%. The same compound came in with an inhibition at 1 µM in assay [3] (Table 4) of 93%.
`COc1ccc2c(c1CN1CCNCC1)O/C(=C\c1n[nH]c3ccc(Cl)cc13)C2=O` [Compound B18, (Z)-2-[(5-Chloro-1H-indazol-3-yl)methylene]-6-methoxy-7-(piperazin-1-ylmethyl)benzofuran-3(2H)-one] displayed an inhibition at 0.1 µM in assay [2] (Table 2) of 95%. The same compound returned an inhibition at 1 µM in assay [3] (Table 4) of 87%.
Take `COc1ccc2c(c1CN1CCNCC1)O/C(=C\c1n[nH]c3ccc(Br)cc13)C2=O` [Compound B19, (Z)-2-[(5-Bromo-1H-indazol-3-yl)methylene]-6-methoxy-7-(piperazin-1-ylmethyl)benzofuran-3(2H)-one]: the inhibition at 0.1 µM in assay [2] (Table 2) is 100%. Also, the inhibition at 1 µM in assay [3] (Table 4) was found to be 94%.
`COCCOc1ccc2c(c1CN1CCNCC1)O/C(=C\c1n[nH]c3ccccc13)C2=O` [Compound B21, (Z)-2-[(1H-Indazol-3-yl)methylene]-6-(2-methoxyethoxy)-7-(piperazin-1-ylmethyl)benzofuran-3(2H)-one] gave an inhibition at 0.1 µM in assay [2] (Table 2) of 97%. Further, the inhibition at 1 µM in assay [3] (Table 4) is 94%.
Regarding `CCOc1ccc2c(c1CN1CCNCC1)O/C(=C\c1n[nH]c3ccccc13)C2=O` [Compound B22, (Z)-2-[(1H-Indazol-3-yl)methylene]-6-ethoxy-7-(piperazin-1-ylmethyl)benzofuran-3(2H)-one], in assay [2] (Table 2), the inhibition at 0.1 µM turned out to be 96%. The compound further displayed an inhibition at 1 µM in assay [3] (Table 4) of 90%.
The matching figures for `CCCOc1ccc2c(c1CN1CCNCC1)O/C(=C\c1n[nH]c3ccccc13)C2=O` [Compound B23, (Z)-2-[(1H-Indazol-3-yl)methylene]-7-(piperazin-1-ylmethyl)-6-propoxybenzofuran-3(2H)-one]: 93% and 90%.
The matching figures for `CCCCOc1ccc2c(c1CN1CCNCC1)O/C(=C\c1n[nH]c3ccccc13)C2=O` [Compound B24, (Z)-2-[(1H-Indazol-3-yl)methylene]-6-butoxy-7-(piperazin-1-ylmethyl)benzofuran-3(2H)-one]: 88% and 89%.
The like results for `CC(C)Oc1ccc2c(c1CN1CCNCC1)O/C(=C\c1n[nH]c3ccccc13)C2=O` [Compound B25, (Z)-2-[(1H-Indazol-3-yl)methylene]-6-isopropoxy-7-(piperazin-1-ylmethyl)benzofuran-3(2H)-one] were, in that order, 97% and 91%.
`CC(C)COc1ccc2c(c1CN1CCNCC1)O/C(=C\c1n[nH]c3ccccc13)C2=O` [Compound B26, (Z)-2-[(1H-Indazol-3-yl)methylene]-6-isobutoxy-7-(piperazin-1-ylmethyl)benzofuran-3(2H)-one] returned an inhibition at 0.1 µM in assay [2] (Table 2) of 78%. In assay [3] (Table 4), this compound had an inhibition at 1 µM of 86%.
As to `O=C1/C(=C/c2n[nH]c3ccccc23)Oc2c1ccc(OCC1CC1)c2CN1CCNCC1` [Compound B27, (Z)-2-[(1H-Indazol-3-yl)methylene]-6-(cyclopropylmethoxy)-7-(piperazin-1-ylmethyl)benzofuran-3(2H)-one], 0.1 µM produced 91% inhibition in assay [2] (Table 2). The compound also came in with an inhibition at 1 µM in assay [3] (Table 4) of 89%.
The like results for `O=C1/C(=C/c2n[nH]c3ccccc23)Oc2c1ccc(OC1CCOCC1)c2CN1CCNCC1` [Compound B29, (Z)-2-[(1H-Indazol-3-yl)methylene]-7-(piperazin-1-ylmethyl)-6-(tetrahydro-2H-pyran-4-yloxy)benzofuran-3(2H)-one] were, in that order, 82% and 90%.
On to `O=C1/C(=C/c2n[nH]c3ccccc23)Oc2c1ccc(OCCc1ccccc1)c2CN1CCNCC1` [Compound B30, (Z)-2-[(1H-Indazol-3-yl)methylene]-6-phenethoxy-7-(piperazin-1-ylmethyl)benzofuran-3(2H)-one], for which testing at 0.1 µM in assay [2] (Table 2) gave an inhibition of 89%. In assay [3] (Table 4), the inhibition at 1 µM worked out at 78%.
The like results for `O=C1/C(=C/c2n[nH]c3ccccc23)Oc2c1ccc(OCCOc1ccccc1)c2CN1CCNCC1` [Compound B31, (Z)-2-((1H-Indazol-3-yl)methylene)-6-(2-phenoxyethoxy)-7-(piperazin-1-ylmethyl)benzofuran-3(2H)-one] were, in that order, 95% and 84%.
The like results for `COc1ccc2c(c1OC1CCNCC1)O/C(=C\c1n[nH]c3ccccc13)C2=O` [Compound B35, (Z)-2-[(1H-Indazol-3-yl)methylene]-6-methoxy-7-(piperidin-4-yloxy)benzofuran-3(2H)-one] were, in that order, 97% and 95%.
The like results for `COc1ccc2c(c1C(=O)N1CCNCC1)O/C(=C\c1n[nH]c3ccccc13)C2=O` [Compound B37, (Z)-2-[(1H-Indazol-3-yl)methylene]-6-methoxy-7-(piperazine-1-carbonyl)benzofuran-3(2H)-one] were, in that order, 85% and 76%.
Turning to `COc1cc2c(c(CN3CCNCC3)c1OC)O/C(=C\c1n[nH]c3ccccc13)C2=O` [Compound B38, (Z)-2-[(1H-Indazol-3-yl)methylene]-5,6-dimethoxy-7-(piperazin-1-ylmethyl)benzofuran-3(2H)-one], testing at 0.1 µM in assay [2] (Table 2) gave an inhibition of 87%. This compound also displayed an inhibition at 1 µM in assay [3] (Table 4) of 95%.
The like results for `O=C1/C(=C/c2n[nH]c3ccccc23)Oc2c1cc1c(c2CN2CCNCC2)OCO1` [Compound B39] were, in that order, 95% and 92%.

The inhibition is the relative decrease from the control value, in per cent. A lower inhibition goes with a weak effect.
